Experimental data published in patent publication US9102635B2, “Substituted bisphenyl butanoic acid derivatives as NEP inhibitors with improved in vivo efficacy” (NOVARTIS AG, priority 2013, dated 2015).

Key:
[1] = molecular target: T1, recombinant human neutral endopeptidase (Homo sapiens, UniProt P08473); assay: in vitro inhibition of recombinant human neutral endopeptidase (fluorescence lifetime assay); type: biochemical; conditions: 1 hour pre-incubation, 1 hour reaction, room temperature, pH 7.4; read-out: Human NEP IC50
T1 construct: made in house; host or cells: insect cells
Source text: The activity of a compound according to the present invention can be assessed by the following in vitro and in vivo methods and/or by the following in vitro and in vivo methods well-described in the art. See Doering K, Meder G, Hinnenberger M, Woelcke J, Mayr L M, Hassiepen U, (2009) “A fluorescence lifetime-based assay for protease inhibitor profiling on human kallikrein 7”, Biomol Screen, January; 14(1):1-9.
In particular, the in vitro inhibition of recombinant human neutral endopeptidase can be determined as follows:
Recombinant human neutral endopeptidase (expressed in insect cells and purified using standard methods, final concentration 7 pM) is pre-incubated with test compounds at various concentrations for 1 hour at room temperature in 10 mM sodium phosphate buffer at pH 7.4, containing 150 mM NaCl and 0.05% (w/v) CHAPS. The enzymatic reaction is started by the addition of a synthetic peptide substrate Cys(PT14)-Arg-Arg-Leu-Trp-OH to a final concentration of 0.7 μM. Substrate hydrolysis leads to an increase in fluorescence lifetime (FLT) of PT14 measured by means of a FLT reader as described by Doering et al. (2009) as referenced supra. The effect of the compound on the enzymatic activity was determined after 1 hour (t=60 min) incubation at room temperature. […]

peripheral NEP = molecular target: T2, peripheral NEP (Rattus norvegicus, UniProt P07861); assay: ANP potentiation model in conscious rats (plasma ANP after oral dose); type: in vivo, Wistar Han (WH) rats; conditions: for PANP % of baseline: 0- to 8-hr time-weighted average of plasma ANP, ANP infusion 450 ng/kg/min i.v.
T2 construct: from tissue; host or cells: whole animal: adult male Wistar Han rats (Charles River Labs), peripheral tissues
T2 sequence (P07861 1-750): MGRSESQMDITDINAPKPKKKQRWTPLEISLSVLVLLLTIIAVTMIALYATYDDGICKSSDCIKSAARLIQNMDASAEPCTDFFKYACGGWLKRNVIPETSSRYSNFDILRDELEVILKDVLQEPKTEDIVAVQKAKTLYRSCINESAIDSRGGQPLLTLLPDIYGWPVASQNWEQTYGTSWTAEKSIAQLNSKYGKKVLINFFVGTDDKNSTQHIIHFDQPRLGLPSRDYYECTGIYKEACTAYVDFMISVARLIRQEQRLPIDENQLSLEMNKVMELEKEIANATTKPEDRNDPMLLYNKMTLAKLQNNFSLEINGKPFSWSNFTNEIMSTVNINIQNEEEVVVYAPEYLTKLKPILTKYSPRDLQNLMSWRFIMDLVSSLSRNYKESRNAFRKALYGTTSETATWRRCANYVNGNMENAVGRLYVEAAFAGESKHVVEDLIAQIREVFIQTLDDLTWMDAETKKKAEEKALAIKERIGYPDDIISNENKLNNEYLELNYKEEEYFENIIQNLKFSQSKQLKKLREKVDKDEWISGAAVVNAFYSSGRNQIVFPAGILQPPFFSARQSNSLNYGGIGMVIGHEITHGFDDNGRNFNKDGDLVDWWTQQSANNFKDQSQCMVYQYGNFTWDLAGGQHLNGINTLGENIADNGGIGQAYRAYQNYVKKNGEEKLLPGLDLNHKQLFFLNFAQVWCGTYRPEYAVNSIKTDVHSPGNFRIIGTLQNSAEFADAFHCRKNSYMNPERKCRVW
Method: In particular, the in vivo inhibition of recombinant human neutral endopeptidase can be determined as follows:
Thus, the potentiation of plasma ANP was used as an index of the extent and duration of inhibition of peripheral NEP by the orally administered compounds.
They were housed on a 12-hr light/dark cycle (light: 6 am to 6 pm) at temperature and relative humidity set points of 72° F. and 55%, respectively. […] In this case, the evening before the experiment (˜5 pm) all but two of the rat's chow pellets were removed. On the morning of the experiment, any remaining food was removed. […] Food was returned at the experiment terminus.
Rats were surgically instrumented with catheters to allow collection of arterial blood samples and intravenous (i.v.) administration of ANP. Rats were anesthetized and maintained in a surgical plane of anesthesia with isoflurane (2% in 100% oxygen). Ophthalmic lubricant was applied to each eye to prevent corneal irritation. Meloxicam (0.2 mg/kg s.c.) was administered for analgesia. If necessary for pain management, a second injection of meloxicam was administered on the first post-operative day. Also, a dose of penicillin G (50,000 U/kg i.m.) was administered pre-operatively to prevent infection.
Under aseptic surgical conditions, a femoral artery and vein were isolated and catheters inserted. Catheters consisted of a ˜55-cm length of Tygon (PVC) Microbore tubing (0.020″, 0.060″ O.D.) bonded with cyclohexanone to a 4.5-cm length of polyurethane (0.012″ I.D., 0.025″ O.D., Micro-Renathane type MRE-025, Braintree Scientific, Inc., Braintree, Mass.) tubing. The catheters were tunneled subcutaneously and exteriorized in the mid-dorsal thoracic/abdominal region. Catheters exited through a subcutaneously anchored tether/swivel system which allowed the animal to move unrestrained in a specialized Plexiglas cage with perforated solid flooring. Catheters were flushed with sterile 0.9% saline and locked with 200 U/mL heparin in sterile 0.9% saline after the surgery was completed.
The rats were allowed to recover for at least one week before being studied while conscious and unrestrained. Rats were infused intravenously (450 ng/kg/min) with rat ANP (ANP (1-28), Product #14-5-41, American Peptide Company, Inc., Sunnyvale, Calif.). After 1 hr of ANP infusion, rats were treated by oral gavage with 1 mL/kg of vehicle (0.5% methylcellulose+0.1% Tween 80) or a selected dose of NEP inhibitor. ANP infusion was continued for an additional 8 hr. Arterial blood samples (0.20 mL) were withdrawn from the femoral arterial cannulas at various times (baseline or time 0, 0.25, 0.5, 1, 2, 4, 6, and 8 hr) into a collection tube containing 0.004 mL EDTA/protease inhibitor (PI) cocktail. Blood samples were centrifuged at 4° C. and 20K g to separate plasma. Plasma samples were aliquoted and frozen (−70° C.) for later analysis of plasma ANP (PANP) levels. The O— to 8-hr time-weighted averages of the PANP concentrations expressed as a percent of the baseline (time 0) PANP values were used to generate dose-response relationships.
The blood collection cocktail consisted of broad-spectrum serine and cysteine PIs and EDTA. […] It also anticoagulated the blood.
The frozen plasma sample was thawed on ice and 10 μL of plasma was diluted 1:10 in 1× assay buffer supplied with the kit. Ten μL of the diluted sample was then assayed. The manufacturer's instructions were followed for the assay protocol (total volume per well was expanded to 50 μl with 1× assay buffer). Absorbance was read (Molecular Devices SpectraMax Paradigm Multi-Mode Detection Platform) at 450 nm within ten minutes of the assay termination.

T1 sequence (P08473 whole entry): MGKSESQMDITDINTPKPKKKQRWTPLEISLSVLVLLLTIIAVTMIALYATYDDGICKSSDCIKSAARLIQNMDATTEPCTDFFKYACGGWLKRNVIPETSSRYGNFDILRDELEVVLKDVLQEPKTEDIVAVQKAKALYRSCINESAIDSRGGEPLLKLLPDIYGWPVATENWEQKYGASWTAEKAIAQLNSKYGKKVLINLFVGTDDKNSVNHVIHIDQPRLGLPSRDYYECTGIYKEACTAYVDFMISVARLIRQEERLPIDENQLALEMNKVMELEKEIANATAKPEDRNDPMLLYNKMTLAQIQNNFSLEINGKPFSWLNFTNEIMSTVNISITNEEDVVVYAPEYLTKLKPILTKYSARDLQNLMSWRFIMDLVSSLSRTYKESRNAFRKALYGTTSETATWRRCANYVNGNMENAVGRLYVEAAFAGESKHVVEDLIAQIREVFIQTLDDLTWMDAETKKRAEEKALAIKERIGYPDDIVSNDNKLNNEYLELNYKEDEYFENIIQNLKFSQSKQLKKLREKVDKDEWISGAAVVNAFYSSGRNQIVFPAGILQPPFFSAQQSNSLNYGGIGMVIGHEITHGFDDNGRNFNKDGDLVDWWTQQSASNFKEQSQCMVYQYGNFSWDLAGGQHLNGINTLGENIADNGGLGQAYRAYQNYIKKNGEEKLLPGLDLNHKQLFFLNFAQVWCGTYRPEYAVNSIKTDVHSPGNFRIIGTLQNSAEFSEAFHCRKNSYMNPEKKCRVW

| SMILES | IC50 [1] | in vivo efficacy compared to Example 5-46 of WO2010/136493 (peripheral NEP; ANP potentiation model, oral) | PANP % of baseline (peripheral NEP; dose 1 mg/kg oral gavage) | PANP % of baseline (peripheral NEP; dose 3 mg/kg oral gavage) | PANP % of baseline (peripheral NEP; dose 10 mg/kg oral gavage) | PANP % of baseline (peripheral NEP; dose 30 mg/kg oral gavage) | PANP % of baseline (peripheral NEP; dose 100 mg/kg oral gavage) |
| --- | --- | --- | --- | --- | --- | --- | --- |
| COc1ccc(F)cc1-c1ccc(C[C@H](CC(=O)O)NC(=O)c2n[nH]c(=O)o2)cc1 [Example 1, (R)-4-(5′-fluoro-2′-methoxy-[1,1-biphenyl]-4-yl)-3-(5-oxo-4,5-dihydro-1,3,4-oxadiazole-2-carboxamido)butanoic acid] | 0.06 nM | superior efficacy | 141 % of baseline | 183 % of baseline | 238 % of baseline | – | – |
| O=C(O)C[C@@H](Cc1ccc(-c2cccc(Cl)c2)cc1)NC(=O)c1n[nH]c(=O)o1 [Example 5-46 of WO2010/136493, reference compound] | – | – | – | 137 % of baseline | 126 % of baseline | 185 % of baseline | 254 % of baseline |
